Experimental data as given in the supplement of paper PMC11208160.

Experiment: recombinant barcode read abundance after kanamycin selection (control-corrected) (log10(CPM+1)); higher = more efficient recombination; sequences stand for … in AGTGCAGAGAAAATCGGCCAGTTTTCTCTGCCTGCAGTCCGCATGCCGT…AGATTTATGCAGCGGACTGCCTTTCTCCCAAAGTGATAAACCGGACAGTATCATGGACCGGTTTTCCCGGTAATCCGTATTTGCAAGGTTGGTTTCACT; site = the 11-nt target
Protocol: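 Pooled E. coli target-specificity screen for the IS621 bridge recombinase. Each library plasmid pairs an 11-nt target (CT core) with a bridge RNA whose target-binding loop (9-nt LTG + 4-nt RTG) is reprogrammed; the rest of the 177-nt WT IS621 bridge RNA scaffold is fixed. The plasmid is co-electroporated with a WT donor plasmid; recombinase is induced with 0.1 mM IPTG and recombinants are selected on kanamycin. Recombinant barcodes are sequenced, converted to CPM, averaged over two biological replicates and corrected by the unselected control CPM. Molecule = full bridge RNA written as DNA: LTG = specificity nt 1-9, RTG = reverse complement of specificity nt 8-11, in the WT scaffold.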
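Note: IS621 recombinase and bridge RNA in Escherichia coli cells.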

Row | Sequence | recombinant barcode read abundance (log10)
1 | CTAGTCACTTGGGTTCTAACCTGTTGCAC (site CTAGTGTCTGT) | 0.0438
2 | TGGTATTCTTGGGTTCTAACCTGTTGCCT (site TGGTATTCTAG) | 0.373
3 | AAGATACCTTGGGTTCTAACCTGTTGCCT (site ATGATACCTAG) | 0.0427
4 | CACGAGCCTTGGGTTCTAACCTGTTGCCT (site CACGAGTCTAG) | 1.63
5 | GAGGTATCTTGGGTTCTAACCTGTTGCTT (site GAGGTATCTTA) | 0.0893
6 | AGATGTGCTTGGGTTCTAACCTGTTGCCT (site CACAAACCTCT) | 0.181
7 | CCGATCCCTTGGGTTCTAACCTGTTGCCT (site CCGATCCCTAG) | 1.4
8 | GGGTTGCCTTGGGTTCTAACCTGTTGCCT (site GCGTTGCCTAG) | 1.1
9 | ACTTAGACTTGGGTTCTAACCTGTTGCCA (site ACTTAGACTTG) | 0.363
10 | CACGGGCCTTGGGTTCTAACCTGTTGCCT (site CACGGGCCTAG) | 0.466
11 | GGAATTCCTTGGGTTCTAACCTGTTGCCT (site GGAATACCTAG) | 0.129
12 | CGGGTGCCTTGGGTTCTAACCTGTTGCCT (site CGGGTGCCTAG) | 1.66
13 | GTCAGCCCTTGGGTTCTAACCTGTTGCGG (site GTTAGCCCTCC) | 0.365
14 | GTCCTACCTTGGGTTCTAACCTGTTGCAA (site GTCCTACCTTT) | 1.45
15 | GCTCCATCTTGGGTTCTAACCTGTTGCCT (site GTTCCATCTAG) | 0.291
16 | GTCAACTCTTGGGTTCTAACCTGTTGCCT (site GTCAACTCTAG) | 2.06
17 | CAGAGTCCTTGGGTTCTAACCTGTTGCAT (site CAGAGTCCTAG) | 0.852
18 | CCGGGGTCTTGGGTTCTAACCTGTTGCCT (site CCGGGGTCTAG) | 1.76
19 | AGGTTTGCTTGGGTTCTAACCTGTTGCCT (site AGGTCTGCTAG) | 0.471
20 | GAGTACCCTTGGGTTCTAACCTGTTGCCT (site GGGTACCCTAG) | 0.619
21 | ACAGCTACTTGGGTTCTAACCTGTTGCCT (site ACAGCTACTAG) | 1.84
22 | TGGTATTCTTGGGTTCTAACCTGTTGCCT (site TGGTATCCTAG) | 0.113

Row | Sequence | recombinant barcode read abundance (log10)
23 | ACCCAGCCTTGGGTTCTAACCTGTTGCAT (site ACCCAGCCTAC) | 0.265
24 | GTAACTGCTTGGGTTCTAACCTGTTGCCT (site GTAAATGCTAG) | 0.373
25 | ACCTACCCTTGGGTTCTAACCTGTTGCCT (site ACATACACTAG) | 0.136
26 | GTCTAAGCTTGGGTTCTAACCTGTTGCCG (site GTCTAAGCTCG) | 0.59
27 | TCGTGCACTTGGGTTCTAACCTGTTGCCT (site TCGTGCCCTAG) | 0.448
28 | AATCGGCCTTGGGTTCTAACCTGTTGCGT (site AATGGGCCTAC) | 0.0625
29 | AGAGTCTCTTGGGTTCTAACCTGTTGCTG (site AGAGTCTCTCA) | 0.78
30 | GAGCAACCTTGGGTTCTAACCTGTTGCTT (site GAGCAACCTAA) | 0.0979
31 | GATCCGTCTTGGGTTCTAACCTGTTGCGG (site GATCCGTCTCC) | 0.136
32 | ACCCAGCCTTGGGTTCTAACCTGTTGCTT (site ACCCAGCCTAT) | 1.41
33 | GGGGCACCTTGGGTTCTAACCTGTTGCTT (site GGGGCACCTAA) | 2.29
34 | GTGTTGCCTTGGGTTCTAACCTGTTGCCT (site GGGTTGCCTAG) | 0.0383
35 | TGCCGAACTTGGGTTCTAACCTGTTGCCT (site GGCCGAACTAG) | 0.0503
36 | ATCGGAGCTTGGGTTCTAACCTGTTGCCT (site ATCGGAGCTAG) | 0.775
37 | CGATTAACTTGGGTTCTAACCTGTTGCCT (site CGATTAGCTAG) | 0.107
38 | ATCAAAGCTTGGGTTCTAACCTGTTGCCT (site ATCACAGCTAG) | 0.156
39 | GTAGACCCTTGGGTTCTAACCTGTTGCGT (site GTAGACCCTAC) | 3.46
40 | TTAGTAGCTTGGGTTCTAACCTGTTGCCT (site TTAGTCGCTAG) | 0.0769
41 | TCGCACGCTTGGGTTCTAACCTGTTGCCT (site TCTCACGCTAG) | 0.541
42 | GACTCTCCTTGGGTTCTAACCTGTTGCCT (site GACTCTCCTAT) | 0.191
43 | TGCCGCTCTTGGGTTCTAACCTGTTGCCT (site TGTCGCTCTAG) | 0.0629
44 | CTACTAGCTTGGGTTCTAACCTGTTGCAA (site CTACTAGCTTT) | 1.25

Row | Sequence | recombinant barcode read abundance (log10)
45 | CGTTCTCCTTGGGTTCTAACCTGTTGCCT (site TGTTCTCCTAG) | 0.121
46 | TCCGTCTCTTGGGTTCTAACCTGTTGCCG (site TCCGTCTCTTG) | 0.0281
47 | TAATATTCTTGGGTTCTAACCTGTTGCCT (site TAATATTCTAG) | 0.0128
48 | GTTAGCCCTTGGGTTCTAACCTGTTGCGG (site GTTAGCCCTCC) | 1.79
49 | GTGGACTCTTGGGTTCTAACCTGTTGCTA (site GTGGACTCTTA) | 2.44
50 | GGCCTCCCTTGGGTTCTAACCTGTTGCCT (site GGCCTCCCTAG) | 0.977
51 | GACAGACCTTGGGTTCTAACCTGTTGCCT (site TACAGACCTAG) | 0.425
52 | GTAGACACTTGGGTTCTAACCTGTTGCCG (site GTAGACACTCG) | 1.28
53 | ACTCACCCTTGGGTTCTAACCTGTTGCGG (site ACTCACCCTCC) | 2.62
54 | AGACAGTCTTGGGTTCTAACCTGTTGCCA (site AGACAGTCTTG) | 0.311
55 | GGTATGTCTTGGGTTCTAACCTGTTGCTG (site CGAATGTCTCA) | 0.119
56 | AGTCCTGCTTGGGTTCTAACCTGTTGCCT (site CGTCCTGCTAG) | 0.072
57 | ACTTTACCTTGGGTTCTAACCTGTTGCCT (site GCTTTACCTAG) | 0.0495
58 | TTGAGGACTTGGGTTCTAACCTGTTGCCA (site TTGAGGACTAC) | 1.14
59 | AGGTCTGCTTGGGTTCTAACCTGTTGCCT (site AGGTGTGCTAG) | 0.12
60 | GGCACCACTTGGGTTCTAACCTGTTGCCT (site GGCACGACTAG) | 0.0916
61 | TACAGACCTTGGGTTCTAACCTGTTGCCT (site CACAGACCTAG) | 0.197
62 | TGGAGTACTTGGGTTCTAACCTGTTGCTT (site TGTAGTACTAG) | 0.0535
63 | TCCGCTCCTTGGGTTCTAACCTGTTGCCT (site TCCGCTGCTAG) | 0.215
64 | GTGAACCCTTGGGTTCTAACCTGTTGCAA (site TCCGGAGCTCG) | 0.103
65 | CGGACTTCTTGGGTTCTAACCTGTTGCCT (site CAGACTTCTAG) | 0.182
66 | GCACCCTCTTGGGTTCTAACCTGTTGCCT (site GCACCCTCTAG) | 2.67
